Measurements published in US20220259202A1, “1-(4-(AMINOMETHYL)BENZYL)-2-BUTYL-2H-PYRAZOLO[3,4-C]QUINOLIN-4-AMINE DERIVATIVES AND RELATED COMPOUNDS AS TOLL-LIKE RECEPTOR (TLR) 7/8 AGONISTS, AS WELL AS ANTIBODY DRUG CONJUGATES THEREOF FOR USE IN CANCER THERAPY AND DIAGNOSIS” (SUTRO BIOPHARMA, INC., priority 2019, published 2022).

Tests used:
[1] = target: T1, mouse TLR7 (Mus musculus, UniProt P58681); test: HEK293 SEAP reporter assay, other TLRs (Biological Example 3); format: cell-based; settings: 16 hrs, * = Estimated
T1 construct: host or cells: HEK293
T1 sequence (P58681 27-1050): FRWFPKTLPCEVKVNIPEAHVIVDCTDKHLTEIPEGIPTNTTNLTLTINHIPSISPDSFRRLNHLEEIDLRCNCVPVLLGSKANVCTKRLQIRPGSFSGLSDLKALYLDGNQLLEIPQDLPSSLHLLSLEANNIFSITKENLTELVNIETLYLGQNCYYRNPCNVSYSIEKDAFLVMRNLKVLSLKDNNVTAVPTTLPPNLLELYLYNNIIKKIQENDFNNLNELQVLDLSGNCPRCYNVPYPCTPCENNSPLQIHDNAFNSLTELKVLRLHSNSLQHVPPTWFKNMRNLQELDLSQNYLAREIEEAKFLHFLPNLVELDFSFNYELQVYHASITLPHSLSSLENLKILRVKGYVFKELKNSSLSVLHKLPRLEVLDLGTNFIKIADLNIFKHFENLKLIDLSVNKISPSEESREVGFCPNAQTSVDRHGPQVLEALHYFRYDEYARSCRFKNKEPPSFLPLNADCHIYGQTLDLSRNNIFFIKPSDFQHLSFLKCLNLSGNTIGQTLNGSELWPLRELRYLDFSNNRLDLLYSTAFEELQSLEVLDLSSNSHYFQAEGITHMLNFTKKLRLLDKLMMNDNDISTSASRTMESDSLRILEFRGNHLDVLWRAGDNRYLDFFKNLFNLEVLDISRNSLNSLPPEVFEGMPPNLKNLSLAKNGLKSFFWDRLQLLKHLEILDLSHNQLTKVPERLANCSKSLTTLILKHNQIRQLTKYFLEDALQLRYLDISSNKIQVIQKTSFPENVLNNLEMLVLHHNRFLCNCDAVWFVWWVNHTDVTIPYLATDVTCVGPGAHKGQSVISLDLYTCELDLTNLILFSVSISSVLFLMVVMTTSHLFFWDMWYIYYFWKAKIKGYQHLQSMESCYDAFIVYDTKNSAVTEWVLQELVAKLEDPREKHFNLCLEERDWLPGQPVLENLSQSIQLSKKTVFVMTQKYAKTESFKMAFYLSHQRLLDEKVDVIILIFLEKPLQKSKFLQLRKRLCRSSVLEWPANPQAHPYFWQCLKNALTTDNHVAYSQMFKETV

[2] = target: T2, human TLR7 (Homo sapiens, UniProt Q9NYK1); test: as above; format: cell-based; settings: 16 hrs, * = Estimated
T2 construct: host or cells: HEK293
T2 sequence (Q9NYK1 27-1049): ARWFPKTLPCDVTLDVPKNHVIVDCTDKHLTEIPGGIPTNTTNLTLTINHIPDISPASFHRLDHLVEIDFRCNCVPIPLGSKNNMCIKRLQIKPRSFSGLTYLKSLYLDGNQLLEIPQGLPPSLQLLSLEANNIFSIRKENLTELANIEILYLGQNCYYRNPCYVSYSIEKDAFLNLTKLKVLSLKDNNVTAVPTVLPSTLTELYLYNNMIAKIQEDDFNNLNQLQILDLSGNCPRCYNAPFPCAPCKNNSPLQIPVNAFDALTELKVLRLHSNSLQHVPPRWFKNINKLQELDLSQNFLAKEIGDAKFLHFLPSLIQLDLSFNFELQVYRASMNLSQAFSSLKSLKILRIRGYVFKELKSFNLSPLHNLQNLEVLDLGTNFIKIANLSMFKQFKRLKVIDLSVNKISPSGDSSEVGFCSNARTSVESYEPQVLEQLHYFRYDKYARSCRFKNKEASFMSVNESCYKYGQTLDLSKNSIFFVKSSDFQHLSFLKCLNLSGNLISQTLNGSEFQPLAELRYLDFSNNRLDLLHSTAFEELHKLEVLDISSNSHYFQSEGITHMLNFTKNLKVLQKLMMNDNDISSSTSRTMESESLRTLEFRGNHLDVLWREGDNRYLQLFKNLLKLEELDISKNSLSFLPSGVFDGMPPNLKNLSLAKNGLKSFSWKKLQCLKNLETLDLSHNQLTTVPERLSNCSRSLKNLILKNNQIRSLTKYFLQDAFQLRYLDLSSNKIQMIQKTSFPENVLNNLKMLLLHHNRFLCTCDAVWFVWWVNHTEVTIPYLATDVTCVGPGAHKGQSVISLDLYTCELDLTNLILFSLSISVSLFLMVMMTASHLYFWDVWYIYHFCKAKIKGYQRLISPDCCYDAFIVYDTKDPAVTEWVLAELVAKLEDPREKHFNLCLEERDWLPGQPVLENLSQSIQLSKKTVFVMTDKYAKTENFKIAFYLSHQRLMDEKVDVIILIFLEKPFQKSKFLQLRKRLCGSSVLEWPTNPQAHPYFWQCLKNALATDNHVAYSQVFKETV
Description: In this example, the activity of the Compound 1 to stimulate different human and mouse TLR pathways was investigated on HEK293 cells transfected with inducible SEAP (secreted embryonic alkaline phosphatase) reporter genes and also expressing different human TLRs (TLR2, TLR3, TLR4, TLR5, TLR7, TLR8, TLRS) or mouse TLRs (TLR2, TLR3, TLR4, TLR5, TLR7, TLR8, TLR13).
HEK293 reporter cell lines were purchased from Invivogen and cell lines were maintained in manufacture recommended culture medium with required supplemental antibiotics. On the day of assay, the cells were harvested with Accutase and counted by the Vi-CELL Cell Viability Analyzers. Cells were re-suspended in HEK blue detection medium and a total of 10000 cells were seeded in each well of a 384-well flat bottom plate. […] Assay plates were cultured at 37° C. in a CO2 incubator for 16 hrs. HEK-Blue™ Detection medium changes to a purple/blue color in the presence of secreted SEAP, which can be detected by spectrophotometry at 620-655 nm. Data was fitted with non-linear regression analysis, using a log(inhibitor) vs. response-variable slope, 3-parameter fit with GraphPad Prism.

Structure (SMILES) | EC50 [1] | EC50 [2]
CCCCn1nc2c(N)nc3ccccc3c2c1Cc1ccc(CN)cc1 [Compound 1, 1-(4-(aminomethyl)benzyl)-2-butyl-2H-pyrazolo[3,4-c]quinolin-4-amine] | ~0.0218 µM | 0.0614 µM
CCCCc1nc2c(N)nc3ccccc3c2n1Cc1ccc(CN)cc1 [Compound A, reference compound] | 0.0159 µM | –
